Results as given in patent publication US20140050668A1, “VISUALIZATION OF LIPID METABOLISM” (UNIVERSITAETSKLINIKUM HAMBURG-EPPENDORF, priority 2011, published 2014).
“Also recorded” adds a separate entry of the source.

Key:
LPL [1] = molecular target: T1, LPL (Mus musculus, UniProt P11152); test: MRI of SPIO-nanosome uptake after pre-injection of THL, heparin or chylomicrons; type: in vivo, mice; details: for uptake of SPIO-nanosomes into BAT, T2*-weighted MRI: cold-exposed FVB mice, pre-injection 1 min before SPIO-nanosomes
T1 construct: from tissue; host or cells: living wild-type FVB mice (in vivo; endothelium of BAT, heart and other lipid-consuming tissues)
T1 sequence (P11152 28-474): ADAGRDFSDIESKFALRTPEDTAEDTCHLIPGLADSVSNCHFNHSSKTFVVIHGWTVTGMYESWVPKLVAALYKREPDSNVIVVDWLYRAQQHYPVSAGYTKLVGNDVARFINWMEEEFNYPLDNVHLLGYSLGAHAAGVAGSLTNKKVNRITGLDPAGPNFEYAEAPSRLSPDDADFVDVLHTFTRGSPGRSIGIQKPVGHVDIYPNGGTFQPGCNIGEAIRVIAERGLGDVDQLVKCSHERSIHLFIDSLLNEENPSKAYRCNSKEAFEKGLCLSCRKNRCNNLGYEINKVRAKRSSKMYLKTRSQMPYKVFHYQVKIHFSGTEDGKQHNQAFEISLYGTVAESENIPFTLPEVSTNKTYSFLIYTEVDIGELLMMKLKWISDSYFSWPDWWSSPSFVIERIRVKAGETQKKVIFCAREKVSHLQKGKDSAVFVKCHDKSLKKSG
Experimental: Animals and diets. All experimental procedures were performed with approval from the animal care committees responsible for the University Medical Center Hamburg-Eppendorf. Animals were housed at 22° C. with ad libitum access to standard laboratory chow diet. We used male and female age-matched (16-22 weeks) FVB wildtype mice which were fasted 24 h or 4 h prior to the experiment. Fasting (22° C.) and cold exposure (4° C.) was performed in single cages for 24 h unless indicated otherwise.
For manipulation of LPL function, THL (Roche, 12.5 mg ml^−1 DMSO) was diluted to 1.25 mg ml^−1 in 10% DMSO in PBS. Mice received 200 μL of either 0.25 mg THL, 50 U heparin (ratiopharm) or PBS (mock). After 1 min, SPIO-nanosomes were injected, and plasma clearance and organ uptake were determined by dynamic MRI.
In vivo imaging studies. MRI was performed as described before^14. Briefly, all static and dynamic MRI measurements were performed with a clinical 3 Tesla MR scanner (Philips Medical Systems, Netherlands) equipped with a custom-made small animal solenoid coil. The dynamic measurements were based on a gradient-echo sequence (Supplementary table 3). The applied sequence is highly sensitive to susceptibility effects caused by local magnetic field inhomogeneities caused by SPIO-TRL. DICOM data were processed with ImageJ (http://rsbweb.nih.gov/ij/). SPIO-nanosomes were injected via a tail vein catheter.

LPL [2] = molecular target: T1, LPL; test: Organ distribution of 59Fe-SPIO- and 3H-triolein-labeled TRL after pre-injection of THL or heparin; type: in vivo; details: cold FVB mice; for uptake of 3H-triolein into BAT / uptake of 59Fe-SPIO into BAT: pre-injected 1 min before radiolabeled TRL i.v., organs 15 min after injection
Experimental: (§1) Turnover studies and organ distribution. For turnover studies, anesthetized mice were tail vein injected with 200 μl radiolabeled TRL. Lipoprotein turnover was determined from 10 μl plasma 0.5, 1, 2, 5 and 15 min after injection. After 15 min, blood was removed by cardiac puncture, the right atrium was opened, and the carcass was perfused through the left ventricle with PBS containing 50 U mL^1 heparin. Then, organs were harvested and weighed. For measurement of radioactivity, organs were solubilized in Solvable (PerkinElmer, Boston, USA, 0.1 mL per 10 mg organ), 200 μL were counted in scintillation fluid and TRL uptake was calculated as c.p.m. per mg organ. Oral fat tolerance tests were performed by gavage of 100 μL olive oil with [9,10-^3H(N)]-triolein (370 KBq per mouse). To measure lipoprotein production triton WR-1339 (Tyloxapol from Sigma; 0.5 mg per g body weight as 10% solution in PBS) was injected into the tail vein. Plasma was collected at indicated time points. For the measurement of hepatic production 1(3)-^3H glycerol (125 KBq per mouse) was injected prior to triton WR-1339. Lipids were extracted from plasma samples and ^3H-glycerol incorporated into triglycerides was measured as described above. For chylomicron production mice received ^3H-triolein in olive oil by gavage as described above directly after triton WR-1339 injection. Intestine-derived radioactivity in plasma was measured as described above. For manipulation of LPL function, THL (Roche, 12.5 mg ml^−1 DMSO) was diluted to 1.25 mg ml^−1 in 10% DMSO in PBS. Mice received 200 μL of either 0.25 mg THL, 50 U heparin (ratiopharm) or 10% DMSO in PBS (mock). After 1 min ^59Fe-SPIO- and ^3H-triolein-labeled TRL were injected and plasma clearance and organ uptake were determined as described above. For postprandial studies mice were i.p. injected with 0.25 mg THL or mock solution prior to gavage of 200 μL olive oil. Blood was collected at indicated time points and plasma triglyceride levels were determined.

LPL [3] = molecular target: T1, LPL; test: Oral fat tolerance test in cold mice pre-treated with THL; type: in vivo; details: cold FVB mice; i.p. pre-treatment; versus mock-treated cold mice (no increase)
Experimental: as §1, with “For chylomicron production mice received ^3H-triolein in olive oil by gavage as described above directly after triton WR-1339 injection.” left out, “For manipulation of LPL function, THL (Roche, 12.5 mg ml^−1 DMSO) was diluted to 1.25 mg ml^−1 in 10% DMSO in PBS. Mice received 200 μL of either 0.25 mg THL, 50 U heparin (ratiopharm) or 10% DMSO in PBS (mock). After 1 min ^59Fe-SPIO- and ^3H-triolein-labeled TRL were injected and plasma clearance and organ uptake were determined as described above. For postprandial studies mice were i.p. injected with 0.25 mg THL or mock solution prior to gavage of 200 μL olive oil.” left out

BAT = test: Intravital confocal imaging of fluorescent-labeled TRL in BAT; type: in vivo, mice
Experimental: In vivo imaging studies. MRI was performed as described before. Briefly, all static and dynamic MRI measurements were performed with a clinical 3 Tesla MR scanner (Philips Medical Systems, Netherlands) equipped with a custom-made small animal solenoid coil. The dynamic measurements were based on a gradient-echo sequence (Supplementary table 3). The applied sequence is highly sensitive to susceptibility effects caused by local magnetic field inhomogeneities caused by SPIO-TRL. DICOM data were processed with Image (http://rsbweb.nih.gov/ij/). For cryo electron microscopy, SPIO-TRL were intravenously injected into control or cold wild-type FVB mice. After 30 min mice were sacrificed, BAT biopsies were taken and processed for transmission electron microscopy (TEM) as described. Micrographs were obtained with a FBI Eagle 4k CCD camera and a Technal 20 TEM operated at 200 kV. For environmental scanning electron microscopy studies of BAT anaesthetized mice were perfused with PBS-Heparin as above and organs were fixed with 2.5% glutaraldehyde in PBS, washed, and postfixed for 30 min with 1% […] in PBS. For intravital microscopy interscapular BAT was dissected in anaesthetized mice and visualized by a confocal microscope equipped with a resonant scanner (Nikon AIR). QD-labeled TRL and fluorescent probes were injected via a tail vein catheter and 15 or 30 confocal images per second were recorded. The acquired data sets were aligned to reduce object movements due to mouse breathing and denoised with a Savitzky-Golay filter in Nikon NIS Elements AR 3.10. Labeling, animations and quicktime-export were done with Adobe After Effects CS4.

Compound	uptake of SPIO-nanosomes into the heart (myocard), T2*-weighted MRI (LPL [1]; 24 h fasted FVB mice, inhibitor injected 1 min before SPIO-nanosomes)	uptake of SPIO-nanosomes into BAT, T2*-weighted MRI (LPL [1])	uptake of 3H-triolein into BAT (LPL [2])	uptake of 59Fe-SPIO into BAT (LPL [2])	uptake of TRL into the heart (LPL [2]; pre-injected before radiolabeled TRL)	plasma triglycerides after lipid gavage (LPL [3])	fluorescent-labeled TRL initially bound to the vascular wall (BAT; heparin after initial TRL binding)	already internalized TRL particles (BAT; time-delayed heparin injection)	binding of a second bolus of TRL (BAT; time-delayed heparin injection)
CCCCCCCCCCC[C@@H](C[C@@H]1OC(=O)[C@H]1CCCCCC)OC(=O)[C@H](CC(C)C)NC=O [THL, Tetrahydrolipstatin]	not enhanced; also recorded: abolished	not enhanced; also recorded: abolished	abolished	abolished	inhibited	significant postprandial triglyceride response			
heparin		blocked	blocked	blocked			released	no influence	blocked
